In US20230131993A1 (priority 2020, published 2023):
Like-named read-outs stand apart in the source and are kept apart here.

What was measured:
[1] = Oxipres accelerated stability test of DragoCalm: Avenanthramide C content by HPLC before and after treatment; conditions: for Degradation (%) of Avenanthramide C: DragoCalm, Oxipres 5 bars oxygen, 24 hours, 70° C.; for degradation inhibitory activity, ranking of single stabilizers: as demonstrated by the examples
Procedure: The oxidative stability of the glycerol/water-based solution of an DragoCalm® extract as described below with different stabilizer was evaluated against a glycerol/water-based solution of an oat extract without stabilizer.
The Oxipres device allows the determination of oxidative resistance (shelf life) of oils. The device is a modification of the bomb method according to ASTM D941, which is based on oxidation with oxygen. The test runs under elevated pressure and temperature, through which the degradation process is accelerated. During the test, the consumption of oxygen results in a pressure drop in the vessel. Decrease of pressure indicates more consumption of oxygen and higher oxidation of the test product.
Thus, it is an accelerated stability test due to harder conditions such as temperature and pressure.
(§1) Stabilizers were presolved in DragoCalm® under stirring at room temperature or, if necessary at a temperature from 40 to 50° C. […] The DragoCalm® samples (15 g) were placed into the reaction vessel and were either exposed to 5 bars of oxygen for 24 hours at 70° C. using the Oxipres device.
(§2) The evaluation of the samples, i.e. the determination of content of Avns was determined by HPLC (comparison before and after Oxipres treatment).
The content of Avenanthramide C was determined by HPLC before and after Oxipres treatment.

[2] = Color stability of DragoCalm before and after Oxipres treatment (L*a*b* system, Δb*); assay type: physicochemical; set-up: key: L*a*b* Δb* = b* change before vs after Oxipres; higher = more discolored; conditions: color difference before/after Oxipres treatment
Procedure: (i.e. hydroxyacetophenone).
Furthermore, the color of the DragoCalm® samples was measured before and after the Oxipres treatment by using the L*a*b* system (Lico 690). The b* value describes the discoloration in the yellowish/red/brownish area, the Δ b* value describes the difference of color before and after Oxipres treatment. The higher the Δ b* value the more discolorated is the test solution.

[3] = Oxipres stability test of DragoCalm: Avenanthramide B; conditions: before and after Oxipres treatment, additive 0.1 %
Procedure: as §1, §2
(§3) The test procedure and the evaluation of the samples were carried out in the same manner as described above for Avenanthramide C.

[4] = during storage; cited from earlier work
[5] = test system: mast cell; conditions: through the interaction with the neurokinin-1 receptor; cited from earlier work
[6] = 24 h, 0.1 %
Procedure: as §1, §2, §3

[7] = Oxipres stability test of DragoCalm: Avenanthramide L; conditions: before and after Oxipres treatment
Procedure: as §1, §2, §3

[8] = in DragoCalm after Oxipres treatment (5 bars oxygen, 24 hours, 70° C.), additive 0.10 %
[9] = in DragoCalm before Oxipres treatment, additive 0.10 %
[10] = in DragoCalm after Oxipres treatment (5 bars oxygen, 24 hours, 70° C.), additive 0.05 %
[11] = in DragoCalm before Oxipres treatment, additive 0.05 %

Compound | Avenanthramide C End (ppm) [1, 8] [ppm] | Avenanthramide C Start (ppm) [1, 9] [ppm] | Δb* ([2]; additive 0.10 %) | also measured
CC(=O)c1ccc(O)cc1 [4-Hydroxyacetophenone] | 1 | 18 | 7.3 | Degradation (%) of Avenanthramide C ([1]; additive 0.10 %): 94.4%; Degradation of Avenanthramide B (%) [3]: 18.5%
O=C1O[C@H]([C@@H](O)CO)C(O)=C1O [Ascorbic acid] | – | – | – | degradation inhibitory activity, ranking of single stabilizers [1]: most effective single antioxidant; Avenanthramide C End (ppm) [1, 10]: 3 ppm; Avenanthramide C Start (ppm) [1, 11]: 16 ppm; Δb* ([2]; additive 0.05 %): 8.2
O=C(C=Cc1ccc(O)c(O)c1)Nc1ccc(O)cc1C(=O)O [Avenanthramide C, N-(3′-4′-dihydroxycinnamoyl)-5-hydroxyanthranilic acid] | – | – | – | stability (known, words) [4]: low stability
O=C(O)CC(O)(CC(=O)O)C(=O)O [Citric acid] | 1 | 18 | 8.2 | Avenanthramide C End (ppm) [1, 10]: 1 ppm; Avenanthramide C Start (ppm) [1, 11]: 26 ppm; Δb* ([2]; additive 0.05 %): 6.5
O=C(CCc1ccc(O)cc1)Nc1ccccc1C(=O)O [Dihydroavenanthramide D, 2-{[3-(4-Hydroxyphenyl)propanoyl]amino}benzoic acid] | – | – | – | mast cell degranulation [5]: inhibits mast cell degranulation; stability (known, words) [4]: more stable in comparison to Avenanthramide C
O=C([O-])CN(CCN(CC(=O)[O-])CC(=O)O)CC(=O)O.[Na+].[Na+] [Disodium EDTA] | – | – | 5.0 | Avenanthramide C End (ppm) [1]: 9 ppm; Avenanthramide C Start (ppm) [1]: 16 ppm
CC(O)C(=O)O (stereo not shown) [Lactic acid] | 1 | 12 | 8.4 | –
O=C(O)CC(O)C(=O)O (stereo not shown) [Malic acid] | 1 | 11 | 8.3 | degradation inhibitory activity, ranking of single stabilizers [1]: most single effective alpha hydroxy acids
O=P(O)(O)O[C@H]1[C@H](OP(=O)(O)O)[C@@H](OP(=O)(O)O)[C@H](OP(=O)(O)O)[C@@H](OP(=O)(O)O)[C@H]1OP(=O)(O)O [Phytic Acid] | 2 | 14 | 8.2 | Degradation of Avenanthramide L (%) [6]: 20.0%
O=C(O)C(O)C(O)C(=O)O (stereo not shown) [Tartaric acid] | 1 | 11 | 9.4 | degradation inhibitory activity, ranking of single stabilizers [1]: most single effective alpha hydroxy acids
O=C([O-])CC[C@@H](C(=O)[O-])N(CC(=O)[O-])CC(=O)[O-].[Na+].[Na+].[Na+].[Na+] [Tetrasodium Glutamate Diacetate] | 1 | 13 | 7.8 | –
CC(C(=O)[O-])N(CC(=O)[O-])CC(=O)[O-].[Na+].[Na+].[Na+] (stereo not shown) [Trisodium MGDA, trisodium methylglycinediacetic acid] | – | – | – | Degradation of Avenanthramide L (%) ([7]; additive 0.2 %): 20.0%
Trisodium Ethylenediamine Disuccinate | 3 | 9 | 7.0 | Degradation (%) of Avenanthramide C ([1]; additive 0.10 %): 66.7%; Degradation of Avenanthramide L (%) ([7]; additive 0.10 %): 0%; Degradation of Avenanthramide B (%) [3]: 7.4%
